In patent publication US20240083861A1, “HSD17B13 INHIBITORS AND USES THEREOF” (FL2022-001, Inc., priority 2020, published 2024):

biological target: T1, Recombinant human HSD17B13 enzyme (Homo sapiens, UniProt Q7Z5P4); experiment: HSD17b13 NAD(P)H-Glo biochemical assay; details: 50 uM estradiol, 1 mM NAD+, NAD(P)H-Glo luminescence; read-out: HSD17β13 IC50
T1 sequence (Q7Z5P4 20-300): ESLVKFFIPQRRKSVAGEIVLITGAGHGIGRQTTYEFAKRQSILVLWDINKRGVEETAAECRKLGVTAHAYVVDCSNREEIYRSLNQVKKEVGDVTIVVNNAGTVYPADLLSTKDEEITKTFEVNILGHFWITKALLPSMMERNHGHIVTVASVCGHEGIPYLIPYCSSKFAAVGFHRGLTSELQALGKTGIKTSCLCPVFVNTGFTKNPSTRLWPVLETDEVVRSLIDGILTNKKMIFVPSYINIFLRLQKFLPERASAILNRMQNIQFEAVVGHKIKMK
Protocol: Example B-1: HSD17b13 NAD(P)H-Glo Biochemical Assay
Recombinant human HSD17B13 enzyme. Substrate: estradiol (Sigma β-Estradiol E8875), 100 mM in DMSO. Cofactor: NAD+ Grade I free acid (Sigma 10127965001), 20 mM in H2O. Assay buffer final concentration: 20 mM Tris pH7.4 with 0.002% Tween-20 and 0.02% BSA. Assay performed in 384 well solid bottom plate (Corning 3570). Enzymatic activity detected by NAD(P)H-Glo™ Detection System (Promega G9062).
Inhibitor compounds were serially diluted in DMSO and then further diluted in assay buffer to a 10× concentration consisting of 1% DMSO.
HSD17b13 enzyme was diluted in 1× assay buffer to the desired enzyme concentration based on the specific activity of the enzyme lot. 20 uL of diluted enzyme was added to each well along with 2.5 uL of 10× inhibitor solution. Assay plate was incubated at RT for 20 minutes, and then 2.5 uL of a 10× substrate/cofactor mix was added to each well for a final concentration of 50 uM estradiol and 1 mM NAD+. Assay plate was incubated at 37° C. for 3 hours. NAD(P)H-Glo™ Detection System reagents were prepared according to manufacturer's specifications, and 25 uL was added to each well. After incubating for 1 hour at RT, luminescence was measured.

IC50 [nM] | SMILES
< 100 | O=C(NC1CCC1)c1ccc2oc(-c3cc(O)c(F)c(F)c3)nc2c1 [Compound 1, N-Cyclobutyl-2-(3,4-difluoro-5-hydroxyphenyl)benzo[d]oxazole-5-carboxamide]
1000 to 30000 | O=C(NC1CC1)c1ccc2oc(-c3cc(O)c(F)c(F)c3)nc2c1 [Compound 1.01, N-Cyclopropyl-2-(3,4-difluoro-5-hydroxyphenyl)benzo[d]oxazole-5-carboxamide]
< 100 | O=C(NC1CCCC1)c1ccc2oc(-c3cc(O)c(F)c(F)c3)nc2c1 [Compound 1.02, N-Cyclopentyl-2-(3,4-difluoro-5-hydroxyphenyl)benzo[d]oxazole-5-carboxamide]
< 100 | O=C(NC1CCCCC1)c1ccc2oc(-c3cc(O)c(F)c(F)c3)nc2c1 [Compound 1.03, N-Cyclohexyl-2-(3,4-difluoro-5-hydroxyphenyl)benzo[d]oxazole-5-carboxamide]
1000 to 30000 | CS(=O)(=O)N1CCN(C(=O)c2ccc3oc(-c4cc(O)c(F)c(F)c4)nc3c2)CC1 [Compound 1.04, (2-(3,4-Difluoro-5-hydroxyphenyl)benzo[d]oxazol-5-yl)(4-(methylsulfonyl)piperazin-1-yl)methanone]
100 to 1000 | CS(=O)(=O)NC1CN(C(=O)c2ccc3oc(-c4cc(O)c(F)c(F)c4)nc3c2)C1 [Compound 1.05, N-(1-(2-(3,4-Difluoro-5-hydroxyphenyl)benzo[d]oxazole-5-carbonyl)azetidin-3-yl)methanesulfonamide]
100 to 1000 | O=C(c1ccc2oc(-c3cc(O)c(F)c(F)c3)nc2c1)N1CCOCC1 [Compound 1.06, (2-(3,4-Difluoro-5-hydroxyphenyl)benzo[d]oxazol-5-yl)(morpholino)methanone]
100 to 1000 | O=C(NC1CCOCC1)c1ccc2oc(-c3cc(O)c(F)c(F)c3)nc2c1 [Compound 1.07, 2-(3,4-Difluoro-5-hydroxyphenyl)-N-(tetrahydro-2H-pyran-4-yl)benzo[d]oxazole-5-carboxamide]
1000 to 30000 | COC1CCN(C(=O)c2ccc3oc(-c4cc(O)c(F)c(F)c4)nc3c2)CC1 [Compound 1.08, (2-(3,4-Difluoro-5-hydroxyphenyl)benzo[d]oxazol-5-yl)(4-methoxypiperidin-1-yl)methanone]
< 100 | O=C(NC12CC(C1)C2)c1ccc2oc(-c3cc(O)c(F)c(F)c3)nc2c1 [Compound 1.09, N-(Bicyclo[1.1.1]pentan-1-yl)-2-(3,4-difluoro-5-hydroxyphenyl)benzo[d]oxazole-5-carboxamide]
< 100 | O=C(NC12CC(C1)C2)c1ccc2oc(-c3cc(O)c(F)c(C(F)(F)F)c3)nc2c1 [Compound 1.10, N-(Bicyclo[1.1.1]pentan-1-yl)-2-(4-fluoro-3-hydroxy-5-(trifluoromethyl)phenyl)benzo[d]oxa-zole-5-carboxamide]
100 to 1000 | O=C(NC12CC(O)(C1)C2)c1ccc2oc(-c3cc(O)c(F)c(C(F)(F)F)c3)nc2c1 [Compound 1.11, 2-(4-Fluoro-3-hydroxy-5-(trifluoromethyl)phenyl)-N-(3-hydroxybicyclo[1.1.1]pentan-1-yl)benzo[d]oxazole-5-carboxamide]
< 100 | O=C(NC12CC(C1)C2)c1ccc2oc(-c3cc(C(F)(F)F)cc(O)c3F)nc2c1 [Compound 1.12, N-(Bicyclo[1.1.1]pentan-1-yl)-2-(2-fluoro-3-hydroxy-5-(trifluoromethyl)phenyl)benzo[d]oxa-zole-5-carboxamide]
< 100 | O=C(NC12CC(C1)C2)c1ccc2oc(-c3cc(C(F)(F)F)c(F)c(O)c3F)nc2c1 [Compound 1.13, N-(Bicyclo[1.1.1]pentan-1-yl)-2-(2,4-difluoro-3-hydroxy-5-(trifluoromethyl)phenyl)benzo[d]oxa-zole-5-carboxamide]
< 100 | O=C(NC1CCC1)c1ccc2oc(-c3cc(C(F)(F)F)c(F)c(O)c3F)nc2c1 [Compound 1.14, N-Cyclobutyl-2-(2,4-difluoro-3-hydroxy-5-(trifluoromethyl)phenyl)benzo[d]oxa-zole-5-carboxamide]
100 to 1000 | CN(C(=O)c1ccc2oc(-c3cc(C(F)(F)F)c(F)c(O)c3F)nc2c1)C1CCC1 [Compound 1.15, N-Cyclobutyl-2-(2,4-difluoro-3-hydroxy-5-(trifluoromethyl)phenyl)-N-methylbenzo[d]oxazole-5-carboxamide]

IC50 [nM] | SMILES
100 to 1000 | CO[C@H]1C[C@H](NC(=O)c2ccc3oc(-c4cc(C(F)(F)F)c(F)c(O)c4F)nc3c2)C1 [Compound 1.16, 2-(2,4-Difluoro-3-hydroxy-5-(trifluoromethyl)phenyl)-N-(trans-3-methoxycyclobutyl)benzo[d]oxazole-5-carboxamide]
100 to 1000 | O=C(c1ccc2oc(-c3cc(C(F)(F)F)c(F)c(O)c3F)nc2c1)N1CCC1 [Compound 1.17, Azetidin-1-yl(2-(2,4-difluoro-3-hydroxy-5-(trifluoromethyl)phenyl)benzo[d]oxa-zol-5-yl)methanone]
1000 to 30000 | CN1CC(NC(=O)c2ccc3oc(-c4cc(C(F)(F)F)c(F)c(O)c4F)nc3c2)C1 [Compound 1.18, 2-(2,4-Difluoro-3-hydroxy-5-(trifluoromethyl)phenyl)-N-(1-methylazetidin-3-yl)benzo[d]oxazole-5-carboxamide]
100 to 1000 | O=C(NC1COC1)c1ccc2oc(-c3cc(C(F)(F)F)c(F)c(O)c3F)nc2c1 [Compound 1.19, 2-(2,4-Difluoro-3-hydroxy-5-(trifluoromethyl)phenyl)-N-(oxetan-3-yl)benzo[d]oxazole-5-carboxamide]
100 to 1000 | CS(=O)(=O)N1CC(NC(=O)c2ccc3oc(-c4cc(C(F)(F)F)c(F)c(O)c4F)nc3c2)C1 [Compound 1.20, 2-(2,4-Difluoro-3-hydroxy-5-(trifluoromethyl)phenyl)-N-(1-(methylsulfonyl)azetidin-3-yl)benzo[d]oxazole-5-carboxamide]
100 to 1000 | O=C(NC12COC(C1)C2)c1ccc2oc(-c3cc(C(F)(F)F)c(F)c(O)c3F)nc2c1 [Compound 1.21, N-(2-Oxabicyclo[2.1.1]hexan-4-yl)-2-(2,4-difluoro-3-hydroxy-5-(trifluoromethyl)phenyl)benzo[d]oxa-zole-5-carboxamide]
< 100 | O=C(NC1CCCC1)c1ccc2oc(-c3cc(C(F)(F)F)c(F)c(O)c3F)nc2c1 [Compound 1.22, N-Cyclopentyl-2-(2,4-difluoro-3-hydroxy-5-(trifluoromethyl)phenyl)benzo[d]oxa-zole-5-carboxamide]
< 100 | CC1(NC(=O)c2ccc3oc(-c4cc(C(F)(F)F)c(F)c(O)c4F)nc3c2)CCC1 [Compound 1.23, 2-(2,4-Difluoro-3-hydroxy-5-(trifluoromethyl)phenyl)-N-(1-methylcyclobutyl)benzo[d]oxazole-5-carboxamide]
< 100 | O=C(NC12CC(C1)C2)c1cc2nc(-c3cc(O)c(F)c(C(F)(F)F)c3)oc2cn1 [Compound 1.24, N-(Bicyclo[1.1.1]pentan-1-yl)-2-(4-fluoro-3-hydroxy-5-(trifluoromethyl)phenyl)oxazolo[5,4-c]pyridine-6-carboxamide]
< 100 | N#CC1(NC(=O)c2ccc3oc(-c4cc(C(F)(F)F)c(F)c(O)c4F)nc3c2)CCC1 [Compound 1.25, N-(1-Cyanocyclobutyl)-2-(2,4-difluoro-3-hydroxy-5-(trifluoromethyl)phenyl)benzo[d]oxa-zole-5-carboxamide]
< 100 | COCC1(NC(=O)c2ccc3oc(-c4cc(C(F)(F)F)c(F)c(O)c4F)nc3c2)CCC1 [Compound 1.26, 2-(2,4-Difluoro-3-hydroxy-5-(trifluoromethyl)phenyl)-N-(1-(methoxymethyl)cyclobutyl)benzo[d] oxazole-5-carboxamide]
100 to 1000 | O=C(NC1(CCO)CCC1)c1ccc2oc(-c3cc(C(F)(F)F)c(F)c(O)c3F)nc2c1 [Compound 1.27, 2-(2,4-Difluoro-3-hydroxy-5-(trifluoromethyl)phenyl)-N-(1-(2-hydroxyethyl)cyclobutyl)benzo[d]oxa-zole-5-carboxamide]
100 to 1000 | O=C(NC1(CO)CCC1)c1ccc2oc(-c3cc(C(F)(F)F)c(F)c(O)c3F)nc2c1 [Compound 1.28, 2-(2,4-Difluoro-3-hydroxy-5-(trifluoromethyl)phenyl)-N-(1-(hydroxymethyl)cyclobutyl)benzo[d] oxazole-5-carboxamide]
< 100 | N#CCC1(NC(=O)c2ccc3oc(-c4cc(C(F)(F)F)c(F)c(O)c4F)nc3c2)CCC1 [Compound 1.29, N-(1-(Cyanomethyl)cyclobutyl)-2-(2,4-difluoro-3-hydroxy-5-(trifluoromethyl)phenyl)benzo[d]oxa-zole-5-carboxamide]
100 to 1000 | O=C(NCC1(O)CCC1)c1ccc2oc(-c3cc(C(F)(F)F)c(F)c(O)c3F)nc2c1 [Compound 1.30, 2-(2,4-Difluoro-3-hydroxy-5-(trifluoromethyl)phenyl)-N-((1-hydroxycyclobutyl)methyl)benzo[d] oxazole-5-carboxamide]
